The structures appear in SMILES notation.

One may read the IC50 as the point on the concentration scale where inhibition reaches its midpoint.

The target of the assay is recombinant CaMKIIδ (Homo sapiens (Human), UniProt Q13557). The assay is described as follows: CaMKIIδ biochemical assay (HTRF). The note with it: 10 pM CaMKIIδ, 110 nM calmodulin, 12 μM ATP, 1 hour; read-out: CAMKIID-HTRF-384V2 (IC50 - nM). The protocol: CaMKIIδ Biochemical Assay
The biochemical activity of recombinant CaMKIIδ was measured by monitoring the phosphorylation of a target peptide using Homogenous Time Resolved Fluorescence (HTRF) technology from CisBio Bioassays.
(In general: In TR-FRET formats the signal depends on donor and acceptor labels being close together.)
As for `Cc1cc(C(=O)N2CCCC[C@@H]2CN)cc(-c2cnn3ccc(-c4ccccc4)nc23)n1` [Example 115, (R)-(2-(aminomethyl)piperidin-1-yl)(2-methyl-6-(5-phenylpyrazolo[1,5-a]pyrimidin-3-yl)pyridin-4-yl)methanone], the IC50 amounted to 1.41 nM.

As for `NC[C@H]1CCCCN1C(=O)c1cc(-c2cnn3ccc(-c4ccccc4)nc23)nc(C(F)(F)F)c1` [Example 116, (R)-(2-(aminomethyl)piperidin-1-yl)(2-(5-phenylpyrazolo[1,5-a]pyrimidin-3-yl)-6-(trifluoromethyl)pyridin-4-yl)methanone], the IC50 is 5.89 nM.

As to `NC[C@H]1CCCCN1C(=O)c1cc(-c2cnn3ccc(-c4ccccc4)nc23)nc(C2CC2)c1` [Example 117, (R)-(2-(aminomethyl)piperidin-1-yl)(2-cyclopropyl-6-(5-phenylpyrazolo[1,5-a]pyrimidin-3-yl)pyridin-4-yl)methanone], the half-inhibitory concentration (IC50) stood at 8.08 nM.

For the molecule `CN(C)c1cc(C(=O)N2CCCC[C@@H]2CN)cc(-c2cnn3ccc(-c4ccccc4)nc23)n1` [Example 118, (R)-(2-(aminomethyl)piperidin-1-yl)(2-(dimethylamino)-6-(5-phenylpyrazolo[1,5-a]pyrimidin-3-yl)pyridin-4-yl)methanone], the half-maximal inhibitory concentration (IC50) is 5.29 nM.

In the case of `CCN[C@@H](C)CNC(=O)c1cc(CC)nc(-c2cnn3ccc(-c4ccccc4)nc23)c1` [Example 119, (S)-2-ethyl-N-(2-(ethylamino)propyl)-6-(5-phenylpyrazolo[1,5-a]pyrimidin-3-yl)isonicotinamide], the IC50 was found to be 71 nM.

As for `CCN[C@@H](C)CNC(=O)c1cc(C)nc(-c2cnn3ccc(-c4ccccc4)nc23)c1` [Example 120, (S)—N-(2-(ethylamino)propyl)-2-methyl-6-(5-phenylpyrazolo[1,5-a]pyrimidin-3-yl)isonicotinamide], the IC50 is 41.8 nM.

For the molecule `CCN[C@@H](C)CNC(=O)c1cc(N)nc(-c2cnn3ccc(-c4ccccc4)nc23)c1` [Example 121, (S)-2-amino-N-(2-(ethylamino)propyl)-6-(5-phenylpyrazolo[1,5-a]pyrimidin-3-yl)isonicotinamide], the IC50 was 15.7 nM.

Consider `CCN[C@@H](C)CNC(=O)c1cc(-c2cnn3ccc(-c4ccccc4)nc23)nc(C(C)C)c1` [Example 122, (S)—N-(2-(ethylamino)propyl)-2-isopropyl-6-(5-phenylpyrazolo[1,5-a]pyrimidin-3-yl)isonicotinamide], for which the IC50 came to 4.61 nM.

Consider `CCN[C@@H](C)CNC(=O)c1cc(-c2cnn3ccc(-c4ccccc4)nc23)nc(C2CC2)c1` [Example 123, (S)-2-cyclopropyl-N-(2-(ethylamino)propyl)-6-(5-phenylpyrazolo[1,5-a]pyrimidin-3-yl)isonicotinamide], for which the IC50 is 94.7 nM.

Turning to `CCN[C@@H](C)CNC(=O)c1cc(Cl)nc(-c2cnn3ccc(-c4ccccc4)nc23)c1` [Example 124, (S)-2-chloro-N-(2-(ethylamino)propyl)-6-(5-phenylpyrazolo[1,5-a]pyrimidin-3-yl)isonicotinamide], the IC50 worked out at 17.1 nM.

As to `CN(C)c1cc(C(=O)N2CC[C@H](N)C2)cc(-c2cnn3ccc(-c4ccccc4)nc23)n1` [Example 125, (S)-(3-aminopyrrolidin-1-yl)(2-(dimethylamino)-6-(5-phenylpyrazolo[1,5-a]pyrimidin-3-yl)pyridin-4-yl)methanone], the IC50 is 267 nM.

On to `COc1cc(C(=O)N2CC[C@H](N)C2)cc(-c2cnn3ccc(-c4ccccc4)nc23)n1` [Example 126, (S)-(3-aminopyrrolidin-1-yl)(2-methoxy-6-(5-phenylpyrazolo[1,5-a]pyrimidin-3-yl)pyridin-4-yl)methanone], for which the IC50 was 65.6 nM.

With `NC[C@H]1CCCCN1C(=O)c1cc(Cl)nc(-c2cnn3ccc(-c4ccccc4)nc23)c1` [Example 127, (R)-(2-(aminomethyl)piperidin-1-yl)(2-chloro-6-(5-phenylpyrazolo[1,5-a]pyrimidin-3-yl)pyridin-4-yl)methanone], the IC50 was 0.22 nM.

Values taken from patent publication US10100058B2, “Fused heterocyclic compounds as CaM kinase inhibitors” (Gilead Sciences, Inc., priority 2016, dated 2018).
